# From US20240254179A1, “Targeting Nuclear Speckles and DNA Speckle Association” (THE TRUSTEES OF THE UNIVERSITY OF PENNSYLVANIA, priority 2023, published 2024)
# Columns and labels:
# ccRCC = ccRCC clinical trial, overall survival by speckle signature, nivolumab versus everolimus; format: in vivo, human; conditions: nivolumab arm versus everolimus arm
# From the text: Without wishing to be bound by theory, it is envisioned that having both RNA- and imaging-based methods for measuring speckle phenotypes will assist in the development of cancer- and patient-specific treatment strategies. As a proof-of-concept for a potential use of nuclear speckle phenotyping, a series of studies was undertaken in which speckle signature was correlated with tumor/patient drug response in available data from a human clinical trial and patient-derived mouse xenograft studies.
# Thus, contrasting with HIF-2a inhibition, PD1 inhibition may have a greater impact in individuals with Signature II tumors.
# Methods for determining speckle signature and TCGA survival analysis. Four-hundred and forty-six protein genes annotated as “Enhanced”, “Supported”, or “Approved” for subcellular localization within nuclear speckles were identified in The Human Protein Atlas and their upper-quartile normalized RNA expression was extracted from the 30 PanCan TCGA projects that had greater than 50 samples. Principal Component Analysis was then performed on these 446 speckle protein genes. In doing so, each speckle protein gene was assigned a weight (called rotation in the analysis) that was used in the analysis to separate tumor sample along the first Principal Component (PC1). The absolute value of a speckle protein gene PC1 weight thus estimates the contribution of each speckle protein gene to patient variation and the PC1 weight sign, positive or negative, reflects genes that have opposite expression patterns to one another. To compare speckle protein gene expression contributions to patient variation between cancer types, the pairwise Pearson's correlation coefficients of the speckle protein PC1 weights were used. In order to obtain a set of speckle protein genes that consistently contributed to patient variation in many cancer types, the rotation signs were flipped so that the speckle protein gene, SON, was always assigned a negative weight. […] Speckle score was then used to separate samples into groups for Kaplan Meier and gene expression analysis between the two groups. With collected ccRCC samples and published drug response studies, speckle scores were calculated using the above formula. In drug-response data (related to FIG. 52), samples with positive speckle scores were considered speckle Signature I and samples with negative speckle scores were considered speckle Signature II. Then differences in drug responses were calculated using a Fisher's exact test (FIG. 53) or Kaplan Meier statistics (FIG. 54).
# HeLa cells = format: cell-based
# [1] = system: patient-derived mouse xenograft tumors; experiment: Speckle signature versus PT2399 sensitivity of patient-derived mouse xenograft ccRCC tumors; format: in vivo
# Experimental: Methods for determining speckle signature and TCGA survival analysis. Four-hundred and forty-six protein genes annotated as “Enhanced”, “Supported”, or “Approved” for subcellular localization within nuclear speckles were identified in The Human Protein Atlas and their upper-quartile normalized RNA expression was extracted from the 30 PanCan TCGA projects that had greater than 50 samples. Principal Component Analysis was then performed on these 446 speckle protein genes. In doing so, each speckle protein gene was assigned a weight (called rotation in the analysis) that was used in the analysis to separate tumor sample along the first Principal Component (PC1). The absolute value of a speckle protein gene PC1 weight thus estimates the contribution of each speckle protein gene to patient variation and the PC1 weight sign, positive or negative, reflects genes that have opposite expression patterns to one another. To compare speckle protein gene expression contributions to patient variation between cancer types, the pairwise Pearson's correlation coefficients of the speckle protein PC1 weights were used. […] With collected ccRCC samples and published drug response studies, speckle scores were calculated using the above formula. […] Then differences in drug responses were calculated using a Fisher's exact test (FIG. 53) or Kaplan Meier statistics (FIG. 54).
Compound,"overall survival, Signature I patients (ccRCC)","overall survival probability, Signature II patients (ccRCC)",speckle association of the CCND1 gene locus (HeLa cells),fraction of Signature II tumors sensitive to PT2399 ([1]; xenograft tumors with negative speckle score (Signature II)) [%],fraction of Signature I tumors sensitive to PT2399 ([1]; xenograft tumors with positive speckle score (Signature I)) [%]
CO[C@H]1C[C@@H]2CC[C@@H](C)[C@@](O)(O2)C(=O)C(=O)N2CCCC[C@H]2C(=O)O[C@H]([C@H](C)C[C@@H]2CC[C@@H](OCCO)[C@H](OC)C2)CC(=O)[C@H](C)/C=C(\C)[C@@H](O)[C@@H](OC)C(=O)[C@H](C)C[C@H](C)/C=C/C=C/C=C/1C [everolimus],did not differ in overall survival between the two treatment groups,higher overall survival probability when treated with nivolumab compared to everolimus,,,
[Cl-].[Cl-].[Co+2] [CoCl2],,,increased speckle association of the CCND1 gene locus,,
nivolumab,did not differ in overall survival between the two treatment groups,higher overall survival probability when treated with nivolumab compared to everolimus,,,
N#Cc1cc(F)cc(Oc2ccc(S(=O)(=O)C(F)F)c3c2CC(F)(F)[C@H]3O)c1 [PT2399],,,,~30,~75
